# In the supplement of paper PMC10307832:
# Legend:
# Test in all cases: relative viability (nuclei count vs DMSO), 5 days (fraction); higher = more cells survive
# [1] = compound: C#Cc1cccc(Nc2ncnc3cc(OC)c(OCCCCCCC(=O)NO)cc23)c1 [CUDC-101] + CC(=O)c1c(C)c2cnc(Nc3ccc(N4CCNCC4)cn3)nc2n(C2CCCC2)c1=O [Palbociclib] (partner 0.5 µM)
# Method in brief: (§1)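 Lung cancer cell lines in 1536-well plates got either a single drug or a fixed anchor-drug dose together with five library-drug doses (not always all listed) in √10 steps, by pin tool, on the day after seeding. Nuclei were counted after 5 days, and relative viability is the treated-to-vehicle ratio of nuclei counts. Values are medians of duplicate plates.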
# [2] = compound: C1=CC=C2C(=C1)N=C(S2)C(C#N)C3=NC(=NC=C3)NCCC4=CN=CC=C4 + CS(=O)(=O)CCNCc1ccc(-c2ccc3ncnc(Nc4ccc(OCc5cccc(F)c5)c(Cl)c4)c3c2)o1 [Lapatinib] (partner 2 µM)
# Method in brief: as §1
# [3] = compound: C1=CC=C2C(=C1)N=C(S2)C(C#N)C3=NC(=NC=C3)NCCC4=CN=CC=C4 + Cc1nc(NC(=O)N2CCC[C@H]2C(N)=O)sc1-c1ccnc(C(C)(C)C(F)(F)F)c1 [Alpelisib] (partner 2 µM)
# Method in brief: as §1
# [4] = compound: COc1cc2/c(=N/c3ccc(Br)cc3F)nc[nH]c2cc1OCC1CCN(C)CC1 [Vandetanib] + CCNC(=O)c1noc(-c2cc(C(C)C)c(O)cc2O)c1-c1ccc(CN2CCOCC2)cc1 [Luminespib] (partner 0.01 µM)
# Method in brief: as §1
Cell Line,relative viability ([1]; first compound 0.01 µM),relative viability ([1]; first compound 0.03162 µM),relative viability ([1]; first compound 0.1 µM),relative viability ([1]; first compound 0.3162 µM),relative viability ([1]; first compound 1 µM),relative viability ([2]; first compound 0.005 µM),relative viability ([2]; first compound 0.01581 µM),relative viability ([2]; first compound 0.05 µM),relative viability ([2]; first compound 0.1581 µM),relative viability ([2]; first compound 0.5 µM),relative viability ([3]; first compound 0.005 µM),relative viability ([3]; first compound 0.01581 µM),relative viability ([3]; first compound 0.05 µM),relative viability ([3]; first compound 0.1581 µM),relative viability ([3]; first compound 0.5 µM),relative viability ([4]; first compound 0.02 µM),relative viability ([4]; first compound 0.06325 µM),relative viability ([4]; first compound 0.2 µM),relative viability ([4]; first compound 0.6325 µM),relative viability ([4]; first compound 2 µM)
PC-3 [JPC-3],0.465,0.574,0.493,0.527,0.481,0.439,0.441,0.423,0.484,0.429,0.935,1.02,0.96,1.08,0.954,0.724,0.661,0.639,0.745,0.524
IA-LM,–,–,–,–,–,–,1.02,0.824,0.888,0.673,–,0.628,0.608,0.916,0.734,–,–,–,–,–
NCI-H520,0.227,0.199,0.277,0.32,0.225,0.672,0.818,1.01,1.15,0.819,0.508,1.09,0.793,1.13,0.665,0.206,0.218,0.222,0.253,0.209
A549,–,–,–,–,–,1.04,0.97,1.04,1.07,0.942,0.64,0.9,0.696,1.02,0.82,–,–,–,–,–
BEN,0.432,0.477,0.522,0.513,0.479,0.561,0.689,0.62,0.792,0.826,0.763,1.1,0.931,0.99,0.932,0.448,0.333,0.469,0.297,0.351
COR-L 105,0.383,0.404,0.408,0.427,0.294,0.362,0.336,0.342,0.372,0.369,1.06,1.22,0.856,0.955,0.678,0.643,0.694,0.275,0.854,0.604
NCI-H1734,0.357,0.374,0.342,0.382,0.274,1.05,1.09,1.03,1.14,1.01,0.695,0.729,0.518,0.726,0.714,0.205,0.204,0.135,0.187,0.229
LOU-NH91,0.574,0.445,0.529,0.581,0.515,0.799,0.758,0.688,0.739,0.724,0.707,0.752,0.62,0.723,0.698,0.33,0.306,0.294,0.369,0.32
NCI-H2405,0.523,0.513,0.585,0.584,0.506,1.05,0.817,1.11,1.11,1.02,0.75,0.784,0.734,0.731,0.839,0.736,0.539,0.776,0.642,0.55
